“And” between values parts separate entries of the source, which are not always exact repeats. Equal values may be shown once. Read-outs that look alike come from different tables or passages of the source.
How the values were obtained:
Type in all cases: cell-based
[1] = tested on: coliforms (ECC)
[2] = tested on: yeast and mold (YM); details: 500 ppm PAA
[3] = tested on: all microbial populations tested (APC, ECC, YM); assay: Micro tests on barley grains, all microbial populations tested (APC, ECC, YM)
Method: The treatment was performed at 20° C. as follows: 100 ml of PAA solution at 500 ppm (unadjusted or adjusted to pH=9.0) were applied to 10.0 g of wet barley grains. Solutions with the grains were then shaken for 30 seconds and then the acid solution was neutralized by addition of 0.5 g sodium thiosulfate. The solutions were then used to evaluate effect of PAA treatment on total microbial count (APC), coliforms (ECC), and yeast and mold (YM). Control samples were treated with DI water.
Each sample was diluted serially into Butterfield's phosphate buffer, and the dilutions were plated on Petrifilm™ (3M, Minneapolis, MN) plates specific for different types of microorganisms. The plates were incubated for 48 hours at 35° C. for APC, and for 5 days at 25° C. for YM. For ECC, the incubation was done at 35° C. for 24 hours, then coliforms were counted, and incubation continued for an additional 24 hours at 35° C. Grown colonies on plates were counted and expressed in CFU/10 g barley grains for each treatment. The tests were done in duplicates.

[4] = steeped barley, 500 ppm PAA, pH = 6.5, 5 s
[5] = steeped barley, 500 ppm PAA, pH = 6.5, 30 s
[6] = steeped barley, 500 ppm PAA, pH = 9, 5 s
[7] = steeped barley, 500 ppm PAA, pH = 9, 30 s
[8] = steeped barley, 500 ppm PAA, pH = 9.0, 30 seconds, 20° C.
[9] = steeped barley, 500 ppm PAA, pH = 9, 10 min
[10] = steeped barley, 500 ppm PAA, pH = 10.0, 5 s
[11] = steeped barley, 500 ppm PAA, pH = 10.0, 30 s
[12] = steeped barley, 500 ppm PAA, unadjusted (pH=3.1), 5 s
[13] = steeped barley, 500 ppm PAA, unadjusted (pH=3.1), 30 s
[14] = test on day 2, treated once, day 2 (after steeping), 500 ppm PAA, 2:1, 10 minutes, 20° C.
[15] = test on day 4, treated once, day 2, 500 ppm PAA, 10 minutes
[16] = test on day 4, treated twice, days 2 and 4, 500 ppm PAA, 10 min each
[17] = germinated barley treated before kilning, pH = 3, 30 s, testing after germination, * = complete kill
[18] = germinated barley treated before kilning, pH = 3, 30 s, testing after kilning, * = complete kill
[19] = germinated barley treated before kilning, pH = 9, 30 s, testing after germination
[20] = germinated barley treated before kilning, pH = 9, 30 s, testing after kilning, * = complete kill
[21] = germinated barley, pH = 3.1, 30 seconds
[22] = germinated barley, pH = 9.0, 30 seconds
[23] = steeped barley, pH = 3.1 (unadjusted), 30 seconds, 20° C.
[24] = steeped barley, pH = 9.0, 30 seconds, 20° C.
[25] = steeped barley, pH = 10.0, 30 s
[26] = steeped barley, unadjusted (pH=3.1), 5 s
[27] = steeped barley, unadjusted (pH=3.1), 30 s

Structure (SMILES): CC(=O)OO [PAA, peracetic acid]
- ECC Log10 Reduction ([1]; steeped barley, 500 ppm PAA, pH = 3.1 (unadjusted), 30 seconds, 20° C.): 1.91 Log10
- ECC Log10 [1, 4]: 5.94 Log10
- ECC Log10 Reduction [1, 4]: 1.66 Log10
- ECC Log10 [1, 5]: 5.26 Log10
- ECC Log10 Reduction [1, 5]: 2.34 Log10
- ECC Log10 [1, 6]: 5.48 Log10
- ECC Log10 Reduction [1, 6]: 1.73 Log10
- ECC Log10 [1, 7]: 4.78 Log10
- ECC Log10 Reduction [1, 7]: 2.43 Log10
- ECC Log10 (CFU/10 g barley grains) [1, 8]: 5.79 Log10
- ECC Log10 Reduction [1, 8]: 2.11 Log10
- ECC Log10 [1, 9]: 3.63 Log10
- ECC Log10 Reduction [1, 9]: 3.57 Log10
- ECC Log10 [1, 10]: 6.49 Log10
- ECC Log10 Reduction [1, 10]: 1.11 Log10
- ECC Log10 [1, 11]: 5.27 Log10
- ECC Log10 Reduction [1, 11]: 2.33 Log10
- ECC Log10 [1, 12]: 4.60 Log10
- ECC Log10 Reduction [1, 12]: 2.60 Log10
- ECC Log10 [1, 13]: 2.60 Log10
- ECC Log10 Reduction [1, 13]: 4.60 Log10
- ECC Log10 [1, 14]: 0.00 Log10
- ECC Log10 Reduction [1, 14]: 4.36 Log10
- ECC Log10 [1, 15]: 5.41 Log10
- ECC Log10 Reduction [1, 15]: 1.8 Log10 and 1.82 Log10
- ECC Log10 [1, 16]: 4.95 Log10
- ECC Log10 Reduction [1, 16]: 2.28 Log10
- kill of ECC microorganisms ([1]; unadjusted PAA 500 ppm, treated after germination): complete kill
- YM Log10 [2, 17]: 0.00* Log10
- YM Log10 Reduction [2, 17]: 4.67* Log10
- YM Log10 [2, 18]: 0.00* Log10
- YM Log10 Reduction [2, 18]: 2.00* Log10
- YM Log10 [2, 19]: 2.92 Log10
- YM Log10 Reduction [2, 19]: 1.75 Log10
- YM Log10 [2, 20]: 0.00* Log10
- YM Log10 Reduction [2, 20]: 2.00* Log10
- YM Log10 (CFU/10 g barley grains) [2, 21]: 3.60 Log10
- YM Log10 Reduction [2, 21]: 1.86 Log10
- YM Log10 (CFU/10 g barley grains) [2, 22]: 3.83 Log10
- YM Log10 Reduction [2, 22]: 1.63 Log10
- YM Log10 (CFU/10 g barley grains) [2, 23]: 3.84 Log10
- YM Log10 Reduction [2, 23]: 1.75 Log10
- YM Log10 ([2]; steeped barley, pH = 6.5, 5 s): 1.30 Log10
- YM Log10 Reduction ([2]; steeped barley, pH = 6.5, 5 s): 2.46 Log10
- YM Log10 ([2]; steeped barley, pH = 6.5, 30 s): 0.00 Log10
- YM Log10 Reduction ([2]; steeped barley, pH = 6.5, 30 s): 3.76 Log10
- YM Log10 ([2]; steeped barley, pH = 9, 5 s): 3.86 Log10
- YM Log10 Reduction ([2]; steeped barley, pH = 9, 5 s): 0.62 Log10
- YM Log10 ([2]; steeped barley, pH = 9, 30 s): 2.60 Log10
- YM Log10 Reduction ([2]; steeped barley, pH = 9, 30 s): 1.88 Log10
- YM Log10 (CFU/10 g barley grains) [2, 24]: 4.06 Log10
- YM Log10 Reduction [2, 24]: 1.53 Log10
- YM Log10 ([2]; steeped barley, pH = 9, 10 min): 2.80 Log10
- YM Log10 Reduction ([2]; steeped barley, pH = 9, 10 min): 1.79 Log10
- YM Log10 ([2]; steeped barley, pH = 10.0, 5 s): 3.52 Log10
- YM Log10 Reduction ([2]; steeped barley, pH = 10.0, 5 s): 0.24 Log10
- YM Log10 [2, 25]: 3.16 Log10
- YM Log10 Reduction [2, 25]: 0.60 Log10
- YM Log10 [2, 26]: 2.95 Log10
- YM Log10 Reduction [2, 26]: 1.53 Log10
- YM Log10 [2, 27]: 0.00 Log10
- YM Log10 Reduction [2, 27]: 4.48 Log10
- reduction of all microorganisms ([3]; germinated barley, unadjusted PAA 500 ppm, 30 seconds (Example 2)): 1-2 Log10
- reduction ([3]; steeped barley, 500 ppm PAA at higher pH (pH=9.0), given sufficient time (Example 4)): 2-3 Log10
- reduction of all microorganisms ([3]; steeped barley, 500 ppm PAA, 30 s (Example 4)): 2.0-4.5 Log10
- reduction in all microbial populations tested ([3]; steeped barley, 500 ppm PAA, 30 seconds, pH 3.1 and 9.0 (Example 1)): 1.5-2.1 Log10

— patent US20240251790A1 (priority 2021, published 2024)
